From article PMC3904387 (ACS medicinal chemistry letters, 2013)

Columns and labels:
[1] = tested on: PR8 H1N1 infected MDCK cells; assay type: cell-based
[2] = tested on: Madin-Darby canine kidney (MDCK) cells

O=C(Cc1ccccc1Cl)c1ccc(O)c(O)c1O [compound 14]
antiviral activity (in words) [1]: neither cytotoxic nor active against virally infected cells | cytotoxicity (in words) [2]: neither cytotoxic

Cc1ccccc1/C=N\NC(=O)c1ccc(O)c(O)c1 [compound 7]
antiviral activity (in words) [1]: lacking cytotoxicity and antiviral activity | cytotoxicity (in words) [2]: lacking cytotoxicity

O=C1CC2(CCCCC2)Oc2c1ccc(O)c2O [compound 11]
antiviral activity (in words) [1]: lack cytotoxicity and antiviral activity | cytotoxicity (in words) [2]: lack cytotoxicity

C/C(=N/NC(=O)c1ccc(O)c(O)c1)c1ccc(C)cc1 [compound 9]
antiviral activity (in words) [1]: lacks antiviral activity | cytotoxicity (in words) [2]: lacks antiviral activity and cytotoxicity

COc1ccccc1N1CCN(/N=C/c2ccc(O)c(O)c2)CC1 [compound 8]
cytotoxicity (in words) [2]: cytotoxic

O=C(N/N=C\c1cccc(Cl)c1Cl)c1ccc(O)c(O)c1 [compound 6]
cytotoxicity (in words) [2]: cytotoxic

CC(=O)N1CCC2(CC1)CC(=O)c1ccc(O)c(O)c1O2 [compound 12]
antiviral activity (in words) [1]: lack cytotoxicity and antiviral activity | cytotoxicity (in words) [2]: lack cytotoxicity
